# Experiments:
# [1] = tested on: various tumour cell lines, including MDR tumour cell lines; set-up: method as in ref Danesi et al, 1993; Kuhl et al, 1993; van der Graaf et al, 1995; Bakker et al, 1997; details: ref Danesi et al, 1993, Kuhl et al, van der Graaf et al, 1995, Bakker et al, 1997; cited from earlier work
# [2] = tested on: patients with intrinsic anthracycline-resistant tumours; test: Phase I toxicity (CTC grading), MMRDX as 3 h intravenous infusion once every 4 weeks
# From the text: Nowadays, anthracyclines play an important role in chemothera- peutic treatment of a wide variety of tumour types. The clinical use of anthracyclines is limited by their toxicity profile, especially irreversible, cumulative dose-related cardiotoxicity, and by intrinsic or acquired resistance of tumours cells. Mechanisms of this resistance consist of several pathways, such as overexpression of drug efflux pumps (i.e. P-glycoprotein), decrease in topoiso- merase II enzyme levels, and increase in cellular detoxifying capacity (Kaye and Merry, 1985; Deffie et al, 1989; de Jong et al, 1990; Ford and Hait, 1990; Roninson, 1997). Morpholinyl anthracyclines, such as methoxymorpholino doxorubicin (MMRDX or PNU-152243), were synthesized in search for new anthracyclines with at least partially novel modes of action, including activity on multidrug-resistant (MDR) tumours. MMRDX is a novel doxorubicin derivative in which the nitrogen atom of the daunosamine is enclosed in a methoxymor- pholino ring (Figure 1). […] The working mechanism of morpholinyl anthracyclines appears to be different from other anthracyclines. Morpholinyl anthracyclines inhibit ribosomal gene transcription as well as topoisomerase I-mediated DNA-cleavage (Wassermann et al, 1988, 1990). […] Metabolic conversion of MMRDX by human liver microsomes and NADPH potentiated the cytotoxicity in an ovarian carcinoma cell line (Lau et al, 1994). […] Therefore, we decided to perform a phase I study with MMRDX administered as a 3 h infusion every 4 weeks in order to try to increase the MTD as compared with bolus administration. In addition, we assessed pharmacokinetics of prolonged MMRDX-infusion. A prolonged methoxymorpholino doxorubicin (PNU- 152243 or MMRDX) infusion schedule in patients with solid tumours: a phase 1 and pharmacokinetic study E Fokkema1 , J Verweij2 , AT van Oosterom3 , DRA Uges1 , R Spinelli4 , O Valota4 , EGE de Vries1 and HJM Groen1 1 Department of Pulmonology, Department of Pharmacy, Department of Internal Medicine, University Hospital Groningen, PO Box 30.001, 9700 RB Groningen, The Netherlands; 2 Rotterdam Cancer Institute and University Hospital, Rotterdam, The Netherlands; 3 University Hospital Leuven, Belgium; 4 Pharmacia & Upjohn, Milan, Italy Summary The aim of this phase I study was to assess feasibility, pharmacokinetics and toxicity of methoxymorpholino doxorubicin (MMRDX or PNU-152243) administered as a 3 h intravenous infusion once every 4 weeks. […] The first cohort of patients was treated with 1 mg m-2 of MMRDX. The next cohorts received 1.25 mg m-2 and 1.5 mg m-2 respectively. […] (c) 2000 Cancer Research Campaign Keywords: methoxymorpholino doxorubicin; pharmacokinetics; phase I study 767 Received 6 January 1999 Revised 2 August 1999 Accepted 25 August 1999 Correspondence to: EGE de Vries British Journal of Cancer (2000) 82(4), 767-771 (c) 2000 Cancer Research Campaign DOI: 10.1054/ bjoc.1999.0996, available online at http://www.idealibrary.com on PATIENTS AND METHODS Patients The study was performed between December 1994 and June 1996. Patients with intrinsic anthracycline-resistant tumours were accrued in three different centres in Belgium and The Netherlands.
compound,measurement,setting,value
"COc1cccc2c1C(=O)c1c(O)c3c(c(O)c1C2=O)C[C@@](O)(C(=O)CO)C[C@@H]3O[C@H]1C[C@H](N2CCO[C@H](OC)C2)[C@H](O)[C@H](C)O1 [MMRDX, methoxymorpholino doxorubicin]",Cytotoxic activity in vitro,[1],potent cytotoxic activity
same,Non-haematological toxicity,[2]; 1 mg m-2,did not exceed CTC grade II
same,Median (range) nadir of leucocytes over all evaluable cycles,[2]; 1.0 mg m-2,6.0 (3.9-15.1) x 109 l-1
same,Median (range) nadir of neutrophils over all evaluable cycles,[2]; 1.0 mg m-2,3.3 (2.4-12.7) x 109 l-1
same,Median (range) nadir of platelets over all evaluable cycles,[2]; 1.0 mg m-2,197 (130-356) x 109 1-1
same,"Neutrophils, CTC grade III toxicity","[2]; 1.0 mg m-2, 7 cycles",0 % of total number of cycles
same,"Neutrophils, CTC grade IV toxicity","[2]; 1.0 mg m-2, 7 cycles",0 % of total number of cycles
same,"Leucocytes, CTC grade III toxicity","[2]; 1.0 mg m-2, 8 cycles",0 % of total number of cycles
same,"Leucocytes, CTC grade IV toxicity","[2]; 1.0 mg m-2, 8 cycles",0 % of total number of cycles
same,"Platelets, CTC grade III toxicity","[2]; 1.0 mg m-2, 8 cycles",0 % of total number of cycles
same,"Platelets, CTC grade IV toxicity","[2]; 1.0 mg m-2, 8 cycles",0 % of total number of cycles
same,Median (range) nadir of leucocytes over all evaluable cycles,[2]; 1.25 mg m-2,2.7 (1.0-10.4) x 109 l-1
same,Median (range) nadir of neutrophils over all evaluable cycles,[2]; 1.25 mg m-2,1.9 (0.5-8.3) x 109 l-1
same,Median (range) nadir of platelets over all evaluable cycles,[2]; 1.25 mg m-2,190 (60-328) x 109 1-1
same,"Nausea, vomiting and diarrhoea exceeding grade II",[2]; 1.25 mg m-2,one cycle
same,Transient elevations in total bilirubin reaching CTC grade II,[2]; 1.25 mg m-2,2/15
same,"Leucocytes, CTC grade III toxicity","[2]; 1.25 mg m-2, 17 cycles",6 % of total number of cycles
same,"Leucocytes, CTC grade IV toxicity","[2]; 1.25 mg m-2, 17 cycles",0 % of total number of cycles
same,"Neutrophils, CTC grade III toxicity","[2]; 1.25 mg m-2, 17 cycles",0 % of total number of cycles
same,"Neutrophils, CTC grade IV toxicity","[2]; 1.25 mg m-2, 17 cycles",0 % of total number of cycles
same,"Platelets, CTC grade III toxicity","[2]; 1.25 mg m-2, 17 cycles",0 % of total number of cycles
same,"Platelets, CTC grade IV toxicity","[2]; 1.25 mg m-2, 17 cycles",0 % of total number of cycles
same,Patients with grade III/IV haematological toxicity,"[2]; 1.25 mg m-2, six patients treated",one patient
same,Death with neutropenic fever / sepsis during febrile neutropenia,[2]; 1.5 mg m-2,One patient
same,Grade III/IV fatigue,[2]; 1.5 mg m-2,one out of 11 cycles
same,Grade III/IV infection,[2]; 1.5 mg m-2,four out of 11 cycles
same,Median (range) nadir of leucocytes over all evaluable cycles,[2]; 1.5 mg m-2,1.4 (0.2-7.5) x 109 l-1
same,Median (range) nadir of neutrophils over all evaluable cycles,[2]; 1.5 mg m-2,0.5 (0.2-7.3) x 109 l-1
same,Median (range) nadir of platelets over all evaluable cycles,[2]; 1.5 mg m-2,55 (8-119) x 109 1-1
same,Nausea and vomiting exceeding grade II,[2]; 1.5 mg m-2,two out of 11 cycles
same,Patients with grade III/IV haematological toxicity,[2]; 1.5 mg m-2,all five patients
same,Transient elevations in total bilirubin reaching CTC grade II,[2]; 1.5 mg m-2,3/11
same,"Neutrophils, CTC grade III toxicity","[2]; 1.5 mg m-2, 7 cycles",29 % of total number of cycles
same,"Neutrophils, CTC grade IV toxicity","[2]; 1.5 mg m-2, 7 cycles",43 % of total number of cycles
same,"Platelets, CTC grade III toxicity","[2]; 1.5 mg m-2, 9 cycles",22 % of total number of cycles
same,"Platelets, CTC grade IV toxicity","[2]; 1.5 mg m-2, 9 cycles",11 % of total number of cycles
same,"Leucocytes, CTC grade III toxicity","[2]; 1.5 mg m-2, 10 cycles",40 % of total number of cycles
same,"Leucocytes, CTC grade IV toxicity","[2]; 1.5 mg m-2, 10 cycles",30 % of total number of cycles
same,Cycles reduced from 1.5 mg m-2 to 1.25 mg m-2 because of haematological toxicity,"[2]; 1.5 mg m-2, three out of five patients",Four out of 11 cycles
same,Patients with neutropenic fever,[2]; 3 h i.v. infusion,Three patients
same,Maximum tolerated dose (MTD),[2]; 3 h i.v. infusion every 4 weeks,1.25 mg m-2
same,CTC grade III/IV nausea and vomiting,"[2]; 3 h i.v. infusion, 1.25 mg m-2",1/18
same,Transient elevation in transaminases up to CTC grade III,"[2]; 3 h i.v. infusion, 1.25 mg m-2",2/16
same,CTC grade III neutropenia,"[2]; 3 h i.v. infusion, 1.5 mg m-2",2/7
same,CTC grade III/IV nausea and vomiting,"[2]; 3 h i.v. infusion, 1.5 mg m-2",2/11
same,CTC grade IV neutropenia,"[2]; 3 h i.v. infusion, 1.5 mg m-2",3/7
same,Thrombocytopenia grade III,"[2]; 3 h i.v. infusion, 1.5 mg m-2",2/9
